{"source": "paper PMC9297971", "about": "(Chembiochem, 2021)", "origin": "cited, not measured here", "tested_on": "HIV-1", "settings": "read-out: IC50 of clinically used T20; ref 15b, 36", "data": [{"substance": "Enfuvirtide [T20]", "values": [{"measurement": "IC50", "value": "24 to 36", "unit": "nM"}]}]}
